Source: patent US7022875B2, “Thiobutacin and antifungal and antioomycete composition for controlling plant diseases using the same” (Korea University Industry and Academy Cooperation Foundation, priority 2003, dated 2006)
In brackets after ≈: the same amount, converted by molar mass.

Columns and labels:
Alternaria mali = test: MIC in microtiter plates; type: cell-based
Botrytis cinerea = test: MIC in microtiter plates; type: cell-based; conditions: 96 h, 28° C., 4 days, complete inhibition of growth
Cladosporium cucumerinum = test: MIC in microtiter plates; type: cell-based; conditions: 96 h, 28° C., 4 days, complete inhibition of growth
[1] = test system: Colletotrichum orbiculare; test: MIC in microtiter plates; type: cell-based
[2] = test system: Fusarium oxysporum f.sp. cucumerinum; test: MIC in microtiter plates; type: cell-based
Magnaporthe grisea = test: microbe, parasite or virus in culture; type: cell-based
Phytophthora capsici = test: microbe, parasite or virus in culture; type: cell-based; conditions: 96 h, 28° C., 4 days
Rhizoctonia solani = test: MIC in microtiter plates; type: cell-based
Candida albicans = test: microbe, parasite or virus in culture; type: cell-based; conditions: 96 h, 28° C., 4 days
Saccharomyces cerevisiae = test: microbe, parasite or virus in culture; type: cell-based; conditions: 96 h, 28° C., 4 days
Bacillus subtilis = test: microbe, parasite or virus in culture; type: cell-based; conditions: 96 h, 28° C., 4 days
[3] = test system: Erwinia carotovora subsp. carotovora; test: microbe, parasite or virus in culture; type: cell-based; conditions: Pectobacterium carotovorum, 96 h; 28° C., 4 days
Ralstonia solanacearum = test: microbe, parasite or virus in culture; type: cell-based; conditions: 96 h
[4] = test system: Xanthomonas campestris pv. Vesicatoria; test: microbe, parasite or virus in culture; type: cell-based; conditions: 96 h, 28° C., 4 days
[5] = test system: Phytophthora capsici infection on pepper plants; test: Control efficacy against Phytophthora blight on pepper plants in a growth room; type: in vivo
Description: The commercial fungicide metalaxyl was used to compare the antifungal activity with thiobutacin against Phytophthora capsici infection on pepper plants in a growth room. Before the pepper plant was inoculated with Phytophthora capsici infection, disease severity was determined both for each treated with various concentrations of thiobutacin and metalaxyl and for the untreated control. Disease severity on pepper plants was rated daily after inoculation based on a scale 0-5: 0=no visible disease symptoms; 1=leaves slightly wilted with brownish lesions beginning to appear on stems; 2=30-50% of entire plant diseased; 3=50-70% of entire plant diseased; 4=70-90% of entire plant diseased; and 5=plant dead.

[6] = 96 h, 28° C., 4 days, complete inhibition of growth
[7] = from 4 days after inoculation, treated plants
[8] = from 5 days after inoculation, 10 μg/ml

In the case of CSC(CC(=O)c1ccccc1N)C(=O)O (stereo not drawn) [thiobutacin, 4-(2-aminophenyl)-4-oxo-2-methylthio-butanoic acid], the “growth inhibition (in words)” value (Alternaria mali) is reported as “not inhibited”, the MIC (Alternaria mali; [6]) is reported as over 100 mg/L and the MIC (Botrytis cinerea) is reported as 50 mg/L (≈ 209 µM). The MIC (Cladosporium cucumerinum) was 50 mg/L (≈ 209 µM), the “growth inhibition (in words)” value [1] was “not inhibited” and the MIC [1, 6] was over 100 mg/L. For the same compound, the MIC ([2]; 96 h, Fusarium oxysporum f.sp. cucumerinum, 28° C., 4 days, complete inhibition of growth) was over 100 mg/L, the “growth inhibition (in words)” value ([2]; Fusarium oxysporum f. sp. cucumerinum) was “not inhibited” and the “growth inhibition (in words)” value (Magnaporthe grisea; Magnaporthe grisea) was “not inhibited”. The MIC (Magnaporthe grisea; Pyricularia oryzae, 96 h) was over 100 mg/L, the MIC (Phytophthora capsici) was 10 mg/L (≈ 41.8 µM) and the “growth inhibition (in words)” value (Rhizoctonia solani) was “not inhibited”. The MIC (Rhizoctonia solani; [6]) was over 100 mg/L, the MIC (Candida albicans) was over 100 mg/L and the MIC (Saccharomyces cerevisiae) was 30 mg/L (≈ 125 µM). The MIC (Bacillus subtilis) was over 100 mg/L, the MIC [3] was over 100 mg/L and the MIC (Ralstonia solanacearum) was over 100 mg/L. For the same compound, the MIC [4] was over 100 mg/L, the “disease symptoms on pepper plants” value ([5]; after 10 days, 100 μg/ml) was “slight damages” and the “disease symptoms on pepper plants” value ([5]; after 10 days, 500 μg/ml) was “did not show any phytophthora infection”. For the same compound, the “disease symptoms on pepper plants” value [5, 7] was “did not exhibit any symptoms” and the “disease symptoms on pepper plants” value [5, 8] was “exhibited the disease development in the leaves”.
For COCC(=O)N(c1c(C)cccc1C)C(C)C(=O)OC (stereo not drawn) [metalaxyl, reference compound], the “disease symptoms on pepper plants” value [5, 7] was “did not exhibit any symptoms”, the “disease symptoms on pepper plants” value [5, 8] was “slight disease symptoms” and the “disease symptoms on pepper plants” value ([5]; from 5 days after inoculation, 50 μg/ml) was “exhibited the disease development in the leaves”. For the same compound, the “disease symptoms on pepper plants” value ([5]; higher concentrations than 100 μg/ml) was “did not show any phytophthora development”.
